Earlier results as cited in patent US7079956B2, “Crystal structure of antibiotics bound to the 30S ribosome and its use” (Medical Research Council, priority 2000, dated 2006).

Details: literature values: Ross et al. 1998 (tetracycline), Cohen et al. 1969 (pactamycin), Cabanas et al. 1978 (hygromycin B)

SMILES: CN[C@H]1C[C@@H](N)[C@H](O)[C@@H](O[C@@H]2O[C@H](CO)[C@H](O)[C@@H]3OC4(O[C@H]23)O[C@H]([C@@H](N)CO)[C@H](O)[C@H](O)[C@H]4O)[C@@H]1O (stereo partly drawn) [hygromycin B, O-6-amino-6-deoxy-L-glycero-D-galacto-heptopyranosylidene-(12-3)-O-D-talopyranosyl-(15)-2-deoxy-N3-methyl-D-streptamine]
- minimum inhibitory concentration: around 6 μM

SMILES: CC(=O)c1cccc(NC2C(N)C(NC(=O)N(C)C)(C(C)O)C(C)(O)C2(O)COC(=O)c2c(C)cccc2O)c1 (centres unmarked) [pactamycin, 2-hydroxy-6-methylbenzoic acid [5-[(3-acetylphenyl)amino]-4-amino-3-[[(dimethylamino)-carbonyl]amino]-1,2-dihydroxy-3-(1-hydroxy-ethyl)-2-methylcyclopentyl]methyl ester]
- minimum inhibitory concentration: 8 to 80 µM
